This experiment has as its system RKO cells viability, CellTiter-Glo ATP luminescence. The experiment can be described thus: RKO cell viability reduction, dose response, CellTiter-Glo luminescence (AID 1117322). For orientation: Cellular ATP, detected with luciferase, serves as a proxy for viable cell number.

The source made the active and inactive calls. No rule for the calls is given here.

What is called IC50 is the concentration at which inhibition is half-maximal.

Consider `CC(C)n1c(/C=C/[C@@H](O)C[C@@H](O)CC(=O)O)c(-c2ccc(F)cc2)c2ccccc21`, for which the IC50 was 19200 nM (inactive).

`OCCN1CCN(CC/C=C2/c3ccccc3Sc3ccc(C(F)(F)F)cc32)CC1`: the IC50 was 318 nM.

Turning to `CCCCCCCCCCCCCC[N+](C)(C)C`, the IC50 was 147 nM.

In the case of `O=C(O)C1(C(=O)O)CCC1.[NH2-].[NH2-].[Pt+2]`, the IC50 was > 20000 nM (inactive).

As to `O=C1[O][Bi][O]c2ccccc21`, the IC50 is > 20000 nM (inactive).

As to `CC(=O)[O][Hg][c]1ccccc1`, the IC50 is 1200 nM.

Regarding `O=Cc1ccc(O)c(O)c1O`, the IC50 was 6230 nM (inactive).

Source of the values: PubChem BioAssay AID1117322.
